Among the data in patent US20260176320A1, “MODULATORS OF G-PROTEIN COUPLED RECEPTORS” (priority 2018, published 2026) are Emax and EC50 values, retold here.

Molecules are shown by their SMILES. Where two headings read alike, the source gives them in different places. Square brackets hold non-standard residues; d marks the D form. Peptide text beside a SMILES is read from it. * marks the point of attachment. X1 = O=C(CSCC(=O)*)NCCN1C(=O)c2ccccc2C1=O; X5 = O=C(CSCC(=O)*)NCCN1CCCC1=O; Aib = CC(C)(N)C(=O)O

What all share (assay type): cell-based
In assay [1] the target is T1, GLP-1R (Homo sapiens, UniProt P43220). The assay is described as follows: HitHunter cAMP assay (GLP-1R). The note with it: cAMP; for Emax: read-out: (Emax) GLP-1R. The method, boiled down: (§1)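 Agonist stimulation lasts 30 min at room temperature on 10,000 cells per well, with phosphodiesterase blocked by 625 μM IBMX. Accumulated cAMP is quantified by competitive antibody luminescence after overnight development.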
On the technique in general: Cyclic AMP is a second messenger, typically raised through Gs and lowered through Gi signalling.

The target in another assay is T2, GIP-R (Homo sapiens, UniProt P48546).
T2 sequence (P48546 22-466): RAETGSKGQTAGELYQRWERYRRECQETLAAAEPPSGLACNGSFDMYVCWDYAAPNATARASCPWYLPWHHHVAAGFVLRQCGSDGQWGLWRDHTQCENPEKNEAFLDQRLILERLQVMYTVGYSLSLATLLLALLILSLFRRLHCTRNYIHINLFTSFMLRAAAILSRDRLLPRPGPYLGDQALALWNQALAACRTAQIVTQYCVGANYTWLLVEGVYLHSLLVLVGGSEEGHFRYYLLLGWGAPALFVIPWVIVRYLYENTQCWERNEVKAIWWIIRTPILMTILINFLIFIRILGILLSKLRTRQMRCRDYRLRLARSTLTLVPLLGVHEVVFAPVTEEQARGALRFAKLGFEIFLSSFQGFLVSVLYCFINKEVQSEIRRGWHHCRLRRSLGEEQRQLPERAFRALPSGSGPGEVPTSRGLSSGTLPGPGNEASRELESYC
The assay is described as follows: HitHunter cAMP assay (GIP-R). The method, boiled down:
as §1

Assay [2] concerns the target T1, GLP-1R. In words: PathHunter β-arrestin assay. The method, boiled down: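 Recruitment of β-arrestin is measured by luminescence after cells, plated overnight, receive serially diluted agonist for 90 min at 37 °C in medium with 0.2% BSA. Detection reagent then develops for 3 h at room temperature, protected from light.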
The mark [3] stands for this setting: Table 3, read-out: EC50 GLP-1R/nM.
Setting [4] is: Table 3A, read-out: EC50 GLP-1R/nM.
The mark [5] stands for this setting: Table 3; cAMP; read-out: EC50 GIP-R/nM.
[6] abbreviates: Table 3A; cAMP; read-out: EC50 GIP-R/nM.
Where [7] appears, read: PathHunter β-arrestin assay, read-out: β-arrestin activity EC50.
Where [8] appears, read: Table 3; cAMP; read-out: (Emax) GIP-R.
Where [9] appears, read: Table 3A; cAMP; read-out: (Emax) GIP-R.

T1 sequence (P43220 24-463): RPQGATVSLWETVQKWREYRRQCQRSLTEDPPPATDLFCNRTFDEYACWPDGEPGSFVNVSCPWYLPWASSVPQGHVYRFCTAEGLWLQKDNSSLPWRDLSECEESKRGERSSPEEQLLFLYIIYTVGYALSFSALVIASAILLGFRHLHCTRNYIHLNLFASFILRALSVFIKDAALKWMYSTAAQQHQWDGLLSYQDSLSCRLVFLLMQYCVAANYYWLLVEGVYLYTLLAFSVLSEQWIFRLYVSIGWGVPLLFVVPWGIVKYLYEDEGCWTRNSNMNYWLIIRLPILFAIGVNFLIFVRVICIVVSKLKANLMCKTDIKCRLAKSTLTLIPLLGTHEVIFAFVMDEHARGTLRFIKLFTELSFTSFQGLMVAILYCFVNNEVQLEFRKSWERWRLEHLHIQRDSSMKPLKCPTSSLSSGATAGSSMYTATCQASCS

The term Emax denotes the size of the effect at its maximum, as opposed to the concentration needed. With `CC[C@H](C)[C@H](NC(=O)[C@H](CO)NC(=O)[C@H](Cc1ccc(O)cc1)NC(=O)[C@H](CC(=O)O)NC(=O)[C@H](CO)NC(=O)[C@@H](NC(=O)[C@H](Cc1ccccc1)NC(=O)[C@@H](NC(=O)CNC(=O)[C@H](CCC(=O)O)NC(=O)CSCC(=O)NCCN1CCCC1=O)[C@@H](C)O)[C@@H](C)O)C(=O)N[C@@H](Cc1ccc(O)cc1)C(=O)N[C@@H](CC(C)C)C(=O)N[C@@H](CC(=O)O)C(=O)N[C@@H](CCCNC(=N)N)C(=O)N[C@@H](CCC(N)=O)C(=O)N[C@@H](C)C(=O)N[C@@H](C)C(=O)NC(C)(C)C(=O)N[C@@H](CCC(=O)O)C(=O)N[C@@H](Cc1ccccc1)C(=O)N[C@H](C(=O)N[C@@H](CC(N)=O)C(=O)N[C@@H](Cc1c[nH]c2ccccc12)C(=O)N[C@@H](CC(C)C)C(=O)N[C@@H](CC(C)C)C(=O)N[C@@H](C)C(=O)NCC(=O)NCC(=O)N1CCC[C@H]1C(=O)N[C@@H](CO)C(=O)N[C@@H](CO)C(=O)NCC(=O)N[C@@H](C)C(=O)N1CCC[C@H]1C(=O)N1CCC[C@H]1C(=O)N1CCC[C@H]1C(=O)N[C@@H](CO)C(N)=O)C(C)C` [Compound 189] (X5-EGTFTSDYSIYLDRQAA[Aib]EFVNWLLAGGPSSGAPPPS-NH2), the Emax at GLP-1R [1] (Table 3) and at GLP-1R [1] (Table 3A) was 94% each time. The EC50 on GLP-1R [1] (setting [3]) is 1 to 10 nM; at GLP-1R [1] (setting [4]) it was 1 to 10 nM; on GIP-R (setting [5]), over 1000 nM; at GIP-R (setting [6]), over 1000 nM; at GLP-1R [2] (setting [7]), over 1000 nM. The Emax at 1 µM on GIP-R (read-out: (Emax) GIP-R at 1 μM, Table 3; cAMP; at 1 μM) amounted to 4.5%.
Regarding `CC[C@H](C)[C@H](NC(=O)[C@H](CO)NC(=O)[C@H](Cc1ccc(O)cc1)NC(=O)[C@H](CC(=O)O)NC(=O)[C@H](CO)NC(=O)[C@@H](NC(=O)[C@H](Cc1ccccc1)NC(=O)[C@@H](NC(=O)CNC(=O)[C@H](CCC(=O)O)NC(=O)CSCC(=O)NCCN1C(=O)c2ccccc2C1=O)[C@@H](C)O)[C@@H](C)O)C(=O)N[C@@H](Cc1ccc(O)cc1)C(=O)N[C@@H](CC(C)C)C(=O)N[C@@H](CC(=O)O)C(=O)N[C@@H](CCCNC(=N)N)C(=O)N[C@@H](CCC(N)=O)C(=O)N[C@@H](C)C(=O)N[C@@H](C)C(=O)NC(C)(C)C(=O)N[C@@H](CCC(=O)O)C(=O)N[C@@H](Cc1ccccc1)C(=O)N[C@H](C(=O)N[C@@H](CC(N)=O)C(=O)N[C@@H](Cc1c[nH]c2ccccc12)C(=O)N[C@@H](CC(C)C)C(=O)N[C@@H](CC(C)C)C(=O)N[C@@H](C)C(=O)NCC(=O)NCC(=O)N1CCC[C@H]1C(=O)N[C@@H](CO)C(=O)N[C@@H](CO)C(=O)NCC(=O)N[C@@H](C)C(=O)N1CCC[C@H]1C(=O)N1CCC[C@H]1C(=O)N1CCC[C@H]1C(=O)N[C@@H](CO)C(N)=O)C(C)C` [Compound 190] (X1-EGTFTSDYSIYLDRQAA[Aib]EFVNWLLAGGPSSGAPPPS-NH2), the EC50 at GLP-1R [1] (EC50 GLP-1R/nM, Table 3) is 1 to 10 nM; at GLP-1R [1] (EC50 GLP-1R/nM, Table 3A) it was 1 to 10 nM; at GIP-R (read-out: EC50 GIP-R/nM; Table 3; cAMP), 0.1 to 10 nM; on GIP-R (read-out: EC50 GIP-R/nM; Table 3A; cAMP), 0.1 to 10 nM; on GLP-1R [2], over 1000 nM. The maximum response (Emax) at GLP-1R [1] (Table 3) was in the range of 97 to 119%; at GLP-1R [1] (Table 3A) it was 97 to 119%; at GIP-R (setting [8]) it was 88 to 119%; on GIP-R (setting [9]) it was 88 to 119%.
In the case of `CC[C@H](C)[C@H](NC(=O)[C@H](CO)NC(=O)[C@H](Cc1ccc(O)cc1)NC(=O)[C@H](CC(=O)O)NC(=O)[C@H](CO)NC(=O)[C@@H](NC(=O)[C@H](Cc1ccccc1)NC(=O)[C@@H](NC(=O)CNC(=O)[C@H](CCC(=O)O)NC(=O)CCCCC(=O)NCCN1C(=O)CSC1=O)[C@@H](C)O)[C@@H](C)O)C(=O)N[C@@H](Cc1ccc(O)cc1)C(=O)N[C@@H](CC(C)C)C(=O)N[C@@H](CC(=O)O)C(=O)N[C@@H](CCCCN)C(=O)N[C@@H](CCC(N)=O)C(=O)N[C@@H](C)C(=O)N[C@@H](C)C(=O)NC(C)(C)C(=O)N[C@@H](CCC(=O)O)C(=O)N[C@@H](Cc1ccccc1)C(=O)N[C@H](C(=O)N[C@@H](CC(N)=O)C(=O)N[C@@H](Cc1c[nH]c2ccccc12)C(=O)N[C@@H](CC(C)C)C(=O)N[C@@H](CC(C)C)C(=O)N[C@@H](C)C(=O)NCC(=O)NCC(=O)N1CCC[C@H]1C(=O)N[C@@H](CO)C(=O)N[C@@H](CO)C(=O)NCC(=O)N[C@@H](C)C(=O)N1CCC[C@H]1C(=O)N1CCC[C@H]1C(=O)N1CCC[C@H]1C(=O)N[C@@H](CO)C(=O)N[C@@H](CCCCN)C(N)=O)C(C)C` [Compound 191], the maximal effect (Emax) on GLP-1R [1] (Table 3) came out at 97%; on GLP-1R [1] (Table 3A) it was 97%; at GIP-R (setting [8]), 68%; on GIP-R (setting [9]), 68%. Moreover, the EC50 on GLP-1R [1] (setting [3]) was 1 to 10 nM; on GLP-1R [1] (setting [4]), 1 to 10 nM; on GIP-R (setting [5]) it was 10 to 100 nM; on GIP-R (setting [6]), 10 to 100 nM; on GLP-1R [2] (setting [7]) it was over 1000 nM.
Take `CC[C@H](C)[C@H](NC(=O)[C@H](CO)NC(=O)[C@H](Cc1ccc(O)cc1)NC(=O)[C@H](CC(=O)O)NC(=O)[C@H](CO)NC(=O)[C@@H](NC(=O)[C@H](Cc1ccccc1)NC(=O)[C@@H](NC(=O)CNC(=O)[C@H](CCC(=O)O)NC(=O)CCC(=O)NCCN1C(=O)CSC1=O)[C@@H](C)O)[C@@H](C)O)C(=O)N[C@@H](Cc1ccc(O)cc1)C(=O)N[C@@H](CC(C)C)C(=O)N[C@@H](CC(=O)O)C(=O)N[C@@H](CCCCN)C(=O)N[C@@H](CCC(N)=O)C(=O)N[C@@H](C)C(=O)N[C@@H](C)C(=O)NC(C)(C)C(=O)N[C@@H](CCC(=O)O)C(=O)N[C@@H](Cc1ccccc1)C(=O)N[C@H](C(=O)N[C@@H](CC(N)=O)C(=O)N[C@@H](Cc1c[nH]c2ccccc12)C(=O)N[C@@H](CC(C)C)C(=O)N[C@@H](CC(C)C)C(=O)N[C@@H](C)C(=O)NCC(=O)NCC(=O)N1CCC[C@H]1C(=O)N[C@@H](CO)C(=O)N[C@@H](CO)C(=O)NCC(=O)N[C@@H](C)C(=O)N1CCC[C@H]1C(=O)N1CCC[C@H]1C(=O)N1CCC[C@H]1C(=O)N[C@@H](CO)C(=O)N[C@@H](CCCCN)C(N)=O)C(C)C` [Compound 192]: the Emax at GLP-1R [1] (Table 3) amounted to 111%; at GLP-1R [1] (Table 3A), 111%; at GIP-R (setting [8]), 63%; on GIP-R (setting [9]), 63%. Also, the EC50 is 0.1 to 1 nM on GLP-1R [1] (setting [3]); 0.1 to 1 nM on GLP-1R [1] (setting [4]); 10 to 100 nM on GIP-R (setting [5]); 10 to 100 nM at GIP-R (setting [6]); over 1000 nM on GLP-1R [2] (setting [7]).
In the case of `CC[C@H](C)[C@H](NC(=O)[C@H](CO)NC(=O)[C@H](Cc1ccc(O)cc1)NC(=O)[C@H](CC(=O)O)NC(=O)[C@H](CO)NC(=O)[C@@H](NC(=O)[C@H](Cc1ccccc1)NC(=O)[C@@H](NC(=O)CNC(=O)[C@H](CCC(=O)O)NC(=O)CCCC(=O)NCCN1C(=O)CSC1=O)[C@@H](C)O)[C@@H](C)O)C(=O)N[C@@H](Cc1ccc(O)cc1)C(=O)N[C@@H](CC(C)C)C(=O)N[C@@H](CC(=O)O)C(=O)N[C@@H](CCCCN)C(=O)N[C@@H](CCC(N)=O)C(=O)N[C@@H](C)C(=O)N[C@@H](C)C(=O)NC(C)(C)C(=O)N[C@@H](CCC(=O)O)C(=O)N[C@@H](Cc1ccccc1)C(=O)N[C@H](C(=O)N[C@@H](CC(N)=O)C(=O)N[C@@H](Cc1c[nH]c2ccccc12)C(=O)N[C@@H](CC(C)C)C(=O)N[C@@H](CC(C)C)C(=O)N[C@@H](C)C(=O)NCC(=O)NCC(=O)N1CCC[C@H]1C(=O)N[C@@H](CO)C(=O)N[C@@H](CO)C(=O)NCC(=O)N[C@@H](C)C(=O)N1CCC[C@H]1C(=O)N1CCC[C@H]1C(=O)N1CCC[C@H]1C(=O)N[C@@H](CO)C(=O)N[C@@H](CCCCN)C(N)=O)C(C)C` [Compound 193], the Emax at GLP-1R [1] (Table 3) was found to be 117%; on GLP-1R [1] (Table 3A) it was 117%; at GIP-R (setting [8]) it was 44%; on GIP-R (setting [9]) it was 44%. The EC50 is 1 to 10 nM at GLP-1R [1] (setting [3]); 1 to 10 nM on GLP-1R [1] (setting [4]); 10 to 100 nM at GIP-R (setting [5]); 10 to 100 nM on GIP-R (setting [6]); over 1000 nM at GLP-1R [2] (setting [7]).
